Reference: patent publication US20100099561A1, “HETEROBICYCLIC ALKYLTHIO-BRIDGED ISOXAZOLINES” (E.I. DU PONT DE NEMOURS AND COMPANY, priority 2008, published 2010)

Experiments:
Type in all cases: in vivo
[1] = system: morningglory (Ipomoea spp.); test: Test A preemergence, morningglory; conditions: 0 to 100 scale (0 no effect, 100 complete control)
Method in brief: (§1)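 Species planted together in a loam soil and sand blend received compound either as a preemergence soil spray or as a postemergence treatment when 2–10 cm tall with one to two leaves. About ten days later, injury was visually rated relative to untreated plants on a 0–100 scale.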

[2] = system: wheat (Triticum aestivum); test: Test B preemergence, wheat; conditions: Table B, preemergence; visual rating on a 0 to 100 scale (0 no effect, 100 complete control), 13 to 15 days after treatment; application rate of this section not shown
Excerpt: (§2) Seeds of plant species selected from blackgrass (Alopecurus myosuroides), downy bromegrass (Bromus tectorum), green foxtail (Setaria viridis), Italian ryegrass (Lolium multiflorum), wheat (Triticum aestivum), wild oat (Avena fatua), catchweed bedstraw (Galium aparine), bermudagrass (Cynodon dactylon), Surinam grass (Brachiaria decumbens), cocklebur (Xanthium strumarium), corn (Zea mays), large crabgrass (Digitaria sanguinalis), woolly cupgrass (Eriochloa villosa), giant foxtail (Setaria faberii), goosegrass (Eleusine indica), johnsongrass (Sorghum halepense), kochia (Kochia scoparia), lambsquarters (Chenopodium album), morningglory (Ipomoea coccinea), nightshade (eastern black nightshade, Solanum ptycanthum), yellow nutsedge (Cyperus esculentus), pigweed (Amaranthus retroflexus), ragweed (common ragweed, Ambrosia elatior), soybean (Glycine max), sunflower (common oilseed sunflower, Helianthus annuus), Russian thistle (Salsola kali), and velvetleaf (Abutilon theophrasti) were planted into a blend of loam soil and sand and treated preemergence with test compounds formulated in a non-phytotoxic solvent mixture which included a surfactant. Treated plants and controls were maintained in a greenhouse for 13 to 15 days, after which time all species were compared to controls and visually evaluated. Plant response ratings, summarized in Table B, are based on a scale of 0 to 100 where 0 is no effect and 100 is complete control. A dash (-) response means no test result.

[3] = system: pigweed (Amaranthus retroflexus); test: Test A postemergence, pigweed; conditions: 0 to 100 scale (0 no effect, 100 complete control)
Method in brief: as §1

corn (Zea mays) [4] = test: Test A postemergence, corn; conditions: 0 to 100 scale (0 no effect, 100 complete control)
Method in brief: as §1

[5] = system: velvetleaf (Abutilon theophrasti); test: Test B preemergence, velvetleaf; conditions: Table B, preemergence; visual rating on a 0 to 100 scale (0 no effect, 100 complete control), 13 to 15 days after treatment; application rate of this section not shown
Excerpt: as §2

[6] = system: large crabgrass (Digitaria sanguinalis); test: Test A postemergence, large crabgrass; conditions: 0 to 100 scale (0 no effect, 100 complete control)
Method in brief: as §1

[7] = system: giant foxtail (Setaria faberi); test: Test A preemergence, giant foxtail; conditions: 0 to 100 scale (0 no effect, 100 complete control)
Method in brief: as §1

[8] = system: barnyardgrass (Echinochloa crus-galli); test: Test A preemergence, barnyardgrass; conditions: 0 to 100 scale (0 no effect, 100 complete control)
Method in brief: as §1

[9] = system: barnyardgrass (Echinochloa crus-galli); test: Test B flooded paddy test, barnyardgrass; conditions: Flood
Method in brief: (§3)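 Compounds were added directly to paddy water over 2-leaf-stage plants in pots flooded 3 cm above soil, water depth maintained. Visual injury scored against controls after 13 to 15 days in greenhouse, 0 (none) to 100 (complete control); dash indicates no result.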

[10] = system: giant foxtail (Setaria faberi); test: Test A postemergence, giant foxtail; conditions: 0 to 100 scale (0 no effect, 100 complete control)
Method in brief: as §1

[11] = system: ducksalad (Heteranthera limosa); test: Test B flooded paddy test, ducksalad; conditions: Flood, scale 0 to 100
Method in brief: as §3

[12] = system: pigweed (Amaranthus retroflexus); test: Test A preemergence, pigweed; conditions: 0 to 100 scale (0 no effect, 100 complete control)
Method in brief: as §1

[13] = system: large crabgrass (Digitaria sanguinalis); test: Test A preemergence, large crabgrass; conditions: 0 to 100 scale (0 no effect, 100 complete control)
Method in brief: as §1

[14] = system: barnyardgrass (Echinochloa crus-galli); test: Test A postemergence, barnyardgrass; conditions: 0 to 100 scale (0 no effect, 100 complete control)
Method in brief: as §1

[15] = system: velvetleaf (Abutilon theophrasti); test: Test A preemergence, velvetleaf; conditions: 0 to 100 scale (0 no effect, 100 complete control)
Method in brief: as §1

[16] = system: wheat (Triticum aestivum); test: Test A postemergence, wheat; conditions: 0 to 100 scale (0 no effect, 100 complete control)
Method in brief: as §1

corn (Zea mays) [17] = test: Test A preemergence, corn; conditions: 125 g ai/ha, 0 to 100 scale (0 no effect, 100 complete control)
Method in brief: as §1

soybean (Glycine max) = test: Test B preemergence, soybean; conditions: Table B, preemergence; visual rating on a 0 to 100 scale (0 no effect, 100 complete control), 13 to 15 days after treatment; application rate of this section not shown
Excerpt: as §2

[18] = system: morningglory (Ipomoea spp.); test: Test A postemergence, morningglory; conditions: 0 to 100 scale (0 no effect, 100 complete control)
Method in brief: as §1

[19] = system: sunflower (common oilseed sunflower, Helianthus annuus); test: Test B preemergence, sunflower; conditions: Table B, preemergence; visual rating on a 0 to 100 scale (0 no effect, 100 complete control), 13 to 15 days after treatment; application rate of this section not shown
Excerpt: as §2

[20] = system: Italian ryegrass (Lolium multiflorum); test: Test B preemergence, Italian ryegrass; conditions: Table B, preemergence; visual rating on a 0 to 100 scale (0 no effect, 100 complete control), 13 to 15 days after treatment; application rate of this section not shown
Excerpt: as §2

[21] = system: wheat (Triticum aestivum); test: Test A preemergence, wheat; conditions: 0 to 100 scale (0 no effect, 100 complete control)
Method in brief: as §1

[22] = system: Surinam grass (Brachiaria decumbens); test: Test B preemergence, Surinam grass; conditions: Table B, preemergence; visual rating on a 0 to 100 scale (0 no effect, 100 complete control), 13 to 15 days after treatment; application rate of this section not shown
Excerpt: as §2

rice (Oryza sativa) = test: Test B flooded paddy test, rice; conditions: Flood, scale 0 to 100
Method in brief: as §3

[23] = system: umbrella sedge (Cyperus difformis); test: Test B flooded paddy test, umbrella sedge; conditions: Flood, scale 0 to 100
Method in brief: as §3

[24] = system: velvetleaf (Abutilon theophrasti); test: Test A postemergence, velvetleaf; conditions: 0 to 100 scale (0 no effect, 100 complete control)
Method in brief: as §1

SMILES: Cn1c(=O)c(CS(=O)(=O)C2=NOC(C)(C)C2)c(C(F)(F)F)c2ccccc21 [Compound 1, 3-[[(4,5-dihydro-5,5-dimethyl-3-isoxazolyl)sulfonyl]methyl]-1-methyl-4-(trifluoromethyl)-2(1H)-quinolinone]
- Plant response rating, Morningglory ([1]; 125 g ai/ha): 0
- Plant response rating, Morningglory ([1]; 500 g ai/ha): 0
- Plant response rating, Wheat [2]: 0
- Plant response rating, Pigweed ([3]; 125 g ai/ha): 0
- Plant response rating, Pigweed ([3]; 500 g ai/ha): 50
- Plant response rating, Corn (corn (Zea mays) [4]; 125 g ai/ha): 0
- Plant response rating, Corn (corn (Zea mays) [4]; 500 g ai/ha): 0
- Plant response rating, Velvetleaf [5]: 0
- Plant response rating, Crabgrass, Large ([6]; 125 g ai/ha): 10
- Plant response rating, Crabgrass, Large ([6]; 500 g ai/ha): 70
- Plant response rating, Foxtail, Giant ([7]; 125 g ai/ha): 30
- Plant response rating, Foxtail, Giant ([7]; 500 g ai/ha): 90
- Plant response rating, Barnyardgrass ([8]; 125 g ai/ha): 0
- Plant response rating, Barnyardgrass ([8]; 500 g ai/ha): 80
- Plant response rating, Barnyardgrass ([9]; 31 g ai/ha, scale 0 to 100): 20
- Plant response rating, Barnyardgrass ([9]; 62 g ai/ha, scale 0 to 100): 20
- Plant response rating, Barnyardgrass ([9]; 125 g ai/ha, scale 0 to 100): 20
- Plant response rating, Barnyardgrass ([9]; 250 g ai/ha, scale 0 to 100 (0 no effect, 100 complete control)): 20
- Plant response rating, Foxtail, Giant ([10]; 125 g ai/ha): 20
- Plant response rating, Foxtail, Giant ([10]; 500 g ai/ha): 80
- Plant response rating, Ducksalad ([11]; 31 g ai/ha): 0
- Plant response rating, Ducksalad ([11]; 62 g ai/ha): 0
- Plant response rating, Ducksalad ([11]; 125 g ai/ha): 0
- Plant response rating, Ducksalad ([11]; 250 g ai/ha): 0
- Plant response rating, Pigweed ([12]; 125 g ai/ha): 0
- Plant response rating, Pigweed ([12]; 500 g ai/ha): 60
- Plant response rating, Crabgrass, Large ([13]; 125 g ai/ha): 0
- Plant response rating, Crabgrass, Large ([13]; 500 g ai/ha): 50
- Plant response rating, Barnyardgrass ([14]; 125 g ai/ha): 0
- Plant response rating, Barnyardgrass ([14]; 500 g ai/ha): 80
- Plant response rating, Velvetleaf ([15]; 125 g ai/ha): 0
- Plant response rating, Velvetleaf ([15]; 500 g ai/ha): 0
- Plant response rating, Wheat ([16]; 125 g ai/ha): 0
- Plant response rating, Wheat ([16]; 500 g ai/ha): 0
- Plant response rating, Corn (corn (Zea mays) [17]): 0
- Plant response rating, Soybean (soybean (Glycine max)): 0
- Plant response rating, Morningglory ([18]; 125 g ai/ha): 0
- Plant response rating, Morningglory ([18]; 500 g ai/ha): 0
- Plant response rating, Sunflower [19]: 0
- Plant response rating, Ryegrass, Italian [20]: 0
- Plant response rating, Wheat ([21]; 125 g ai/ha): 0
- Plant response rating, Wheat ([21]; 500 g ai/ha): 0
- Plant response rating, Surinam Grass [22]: 0
- Plant response rating, Rice (rice (Oryza sativa); 31 g ai/ha): 0
- Plant response rating, Rice (rice (Oryza sativa); 62 g ai/ha): 0
- Plant response rating, Rice (rice (Oryza sativa); 125 g ai/ha): 0
- Plant response rating, Rice (rice (Oryza sativa); 250 g ai/ha): 20
- Plant response rating, Sedge, Umbrella ([23]; 31 g ai/ha): 0
- Plant response rating, Sedge, Umbrella ([23]; 62 g ai/ha): 0
- Plant response rating, Sedge, Umbrella ([23]; 125 g ai/ha): 0
- Plant response rating, Sedge, Umbrella ([23]; 250 g ai/ha): 0
- Plant response rating, Velvetleaf ([24]; 125 g ai/ha): 0
- Plant response rating, Velvetleaf ([24]; 500 g ai/ha): 20
